11 compounds from PubChem BioAssay (NCI) can be followed below.

In general, TGI refers to the concentration giving total growth inhibition. The low end stands for more potent growth arrest, the high end for less potent growth arrest. One may read the GI50 as the concentration that inhibits growth by half.

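Where inhibition never reached the appropriate level, the endpoint shown equals the highest concentration tested. Otherwise, values were interpolated linearly from a five-concentration, 48-hour dose response in 96-well plates. GI50: concentration for 50% inhibition of growth. Definition used: TGI = concentration required for complete inhibition of growth.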

Among the test systems are SK-MEL-2 melanoma; UACC-62 melanoma; COLO 205 colon; MOLT-4 leukemia; OVCAR-3 ovarian; KM12 colon; TK-10 renal; OVCAR-5 ovarian; SR leukemia; HCT-15 colon; T-47D breast; MDA-N; DU-145 prostate.
Experiment in all cases: DTP human tumour cell line panel, 48 h

As for `O=C(c1ccccc1)[C@H]1Nc2ccc(Cl)cc2[C@H]2OCCC[C@@H]12`, the TGI in the assay with SK-MEL-2 melanoma came to 43.9 µM; with UACC-62 melanoma, 33.5 µM; with COLO 205 colon it was 45.7 µM; in the assay on MOLT-4 leukemia, 61.7 µM; in the assay with OVCAR-3 ovarian, 30.7 µM; in the assay with KM12 colon, 34.1 µM. The TGI was 64.6 µM in the assay with TK-10 renal, 35.3 µM in the assay with OVCAR-5 ovarian, 79.2 µM with SR leukemia and 43.8 µM in the assay with HCT-15 colon.
Turning to `CS/C(=N\C(=S)Nc1ccccc1)Nc1ccccc1`, the TGI in the assay with SK-MEL-2 melanoma was 56.4 µM; in the assay with UACC-62 melanoma it was 53.6 µM; in the assay with COLO 205 colon, 78.1 µM; in the assay with MOLT-4 leukemia it was 85.7 µM; with OVCAR-3 ovarian, 48 µM; in the assay with KM12 colon, greater than 100 µM. Besides, the TGI is 54.7 µM in the assay with TK-10 renal, 77.3 µM in the assay on OVCAR-5 ovarian, 64.1 µM with SR leukemia and 58.1 µM with HCT-15 colon.
Consider `NC(=O)NO`, for which the TGI is greater than 2500 µM in the assay with T-47D breast; greater than 2500 µM in the assay on MDA-N; greater than 2450 µM in the assay with SK-MEL-2 melanoma; 1560 µM in the assay with UACC-62 melanoma; greater than 2500 µM in the assay on COLO 205 colon; 2100 µM with MOLT-4 leukemia. Further, the concentration for total growth inhibition (TGI) in the assay on OVCAR-3 ovarian is 2500 µM; with KM12 colon, 2500 µM; in the assay on TK-10 renal, greater than 2500 µM; with DU-145 prostate, greater than 2500 µM; in the assay on OVCAR-5 ovarian, 1990 µM; in the assay on SR leukemia it was 1620 µM. The compound further gave a TGI in the assay on HCT-15 colon of 2360 µM.
For `CC(=O)Oc1ccc2c(C)cc(=O)oc2c1`, the TGI in the assay on T-47D breast, in the assay on MDA-N, in the assay with SK-MEL-2 melanoma, in the assay with UACC-62 melanoma, with COLO 205 colon and in the assay with MOLT-4 leukemia was greater than 100 µM each time. In addition, the TGI with OVCAR-3 ovarian, in the assay on KM12 colon, with TK-10 renal, in the assay with DU-145 prostate, in the assay with OVCAR-5 ovarian and in the assay with SR leukemia was greater than 100 µM throughout. In addition, in the assay with HCT-15 colon, the TGI was greater than 100 µM.
`COc1cc2nc(-c3cccs3)nc(N3C(c4ccc(O)cc4)=NNC(=O)c4ccccc43)c2cc1OC`: the concentration for total growth inhibition (TGI) in the assay on T-47D breast was greater than 100 µM; in the assay on SK-MEL-2 melanoma, 60.5 µM; with UACC-62 melanoma it was 43 µM; in the assay with COLO 205 colon, 52.1 µM; with KM12 colon, greater than 100 µM; with TK-10 renal, 70.5 µM. Besides, the values for the TGI in the assay with DU-145 prostate, with OVCAR-5 ovarian and in the assay on HCT-15 colon were greater than 100 µM, 84.2 µM and greater than 100 µM, respectively.
Consider `CCCCNc1c(CN)cnc2cc(Cl)ccc12`, for which the TGI with T-47D breast came out at 44.3 µM; with MDA-N, 39.3 µM; in the assay on SK-MEL-2 melanoma, 33.3 µM; in the assay with UACC-62 melanoma it was 29 µM; in the assay with COLO 205 colon, 21.5 µM; in the assay on MOLT-4 leukemia, 36.5 µM. The TGI in the assay on OVCAR-3 ovarian stood at 32.3 µM; in the assay with KM12 colon it was 36.7 µM; with TK-10 renal it was 30.2 µM; in the assay on DU-145 prostate, 86.8 µM; in the assay on OVCAR-5 ovarian it was 35.5 µM; in the assay with HCT-15 colon, 33.1 µM.
For `N=C(N)C(N=Nc1ccccc1)C(N)=O` (centres undefined), the TGI with T-47D breast, in the assay on MDA-N, in the assay with SK-MEL-2 melanoma, in the assay on UACC-62 melanoma, with COLO 205 colon and with MOLT-4 leukemia was greater than 100 µM each time. Also, the TGI in the assay with OVCAR-3 ovarian, in the assay with KM12 colon, with TK-10 renal, with DU-145 prostate, in the assay on OVCAR-5 ovarian and with HCT-15 colon was greater than 100 µM throughout.
For the compound `CN(C)CCCNc1ncnc2nc[nH]c12`, the TGI with T-47D breast, in the assay on MDA-N, in the assay on SK-MEL-2 melanoma, in the assay on UACC-62 melanoma, in the assay on COLO 205 colon and in the assay on MOLT-4 leukemia was greater than 100 µM throughout. Besides, the TGI in the assay on OVCAR-3 ovarian, in the assay on KM12 colon, in the assay with TK-10 renal, in the assay on DU-145 prostate, in the assay with OVCAR-5 ovarian and with HCT-15 colon was greater than 100 µM each time.
As for `C=CCOC1OC(CS(=O)(=O)O)C(O)C(O)C1O` (centres undefined), the total growth inhibition concentration (TGI) in the assay on T-47D breast, with MDA-N, with SK-MEL-2 melanoma, in the assay on UACC-62 melanoma, with COLO 205 colon and in the assay with MOLT-4 leukemia was greater than 100 µM each time. The TGI in the assay with OVCAR-3 ovarian, in the assay on KM12 colon, in the assay with TK-10 renal, in the assay with DU-145 prostate, in the assay on OVCAR-5 ovarian and with SR leukemia was greater than 100 µM in each case. In the assay with HCT-15 colon, the TGI is greater than 100 µM.
As to `Cc1ccc2cc3c(ccc4ccccc43)c3c2c1CC3`, the TGI with T-47D breast, with MDA-N, with SK-MEL-2 melanoma, with UACC-62 melanoma, with COLO 205 colon and with MOLT-4 leukemia was greater than 100 µM throughout. Moreover, the TGI with OVCAR-3 ovarian, with KM12 colon, with TK-10 renal, in the assay with DU-145 prostate, in the assay with OVCAR-5 ovarian and in the assay with SR leukemia was greater than 100 µM throughout. For the same compound, in the assay on HCT-15 colon, the TGI is greater than 100 µM. Further, the GI50 in the assay with OVCAR-5 ovarian was greater than 100 µM.
Take `O=C(O)C(O)Cc1ccccn1` (centres undefined): the total growth inhibition concentration (TGI) in the assay on T-47D breast, in the assay on SK-MEL-2 melanoma, with UACC-62 melanoma, in the assay on COLO 205 colon, with OVCAR-3 ovarian and with KM12 colon was greater than 100 µM each time. Further, the concentration for total growth inhibition (TGI) with TK-10 renal, in the assay with DU-145 prostate, in the assay with OVCAR-5 ovarian, in the assay on SR leukemia and in the assay with HCT-15 colon was greater than 100 µM in each case.
